Reference: patent publication US20030017186A1, “Carboxylic acid fluorides as pesticides” (priority 1999, published 2003)

What was measured:
Assay type in all cases: in vivo
[1] = tested on: Saw-toothed grain beetle (Oryzaephilus surinamensis); assay: Fumigation test in glass vessel, saw-toothed grain beetles; settings: ORYZSA beetles; Example 7; ACF 53.0/54.6/0 g/m^3, second gas (SF) 43.6/41.4/39.8 g/m^3 (1st/2nd/3rd fumigation); 20.0/20.2/19.8 C.
From the text: a4) Saw-toothed grain beetle (Oryzaephilus surinamensis)=ORYZSA
(§1) The test organisms, separated by species, were placed into a glass vessel measuring 30 cm×30 cm×60 cm, which was sealed with a glass lid so as to be airtight. The adults and the larvae of the mealworm beetle (Tenebrio molitor) and the broad-horned flour beetle (Gnathocerus cornutus) were placed into small glass vessels approximately 5 cm in diameter, which were closed with a gauze lid and in which they could freely move about. The larvae of the rice weevil had burrowed into seeds of grain. The wood pest larvae were inserted into small blocks of wood measuring 5 cm×2.5 cm×2 cm. The openings were sealed with wads of cotton wool. Only one each of the larvae of the house longhorn beetle (Hylotrupes bajulus) was inserted into a piece of wood, while 6-8 larvae of the common furniture beetle (Anobium punctatum) were inserted into each piece of wood.
(§2) The respective gas was then introduced into the fumigation vessel through a gas line from a gas tank that contained the specified amount of gas. After a defined time period, the fumigation vessel was purged with compressed air. The discharged gas was purified by an attached gas scrubber.
(§3) The beetles were observed until they died. This point was recorded for each species. The larvae of the wood pests as well as the larvae of the rice weevil (Sitophilus oryzae) had to be picked out of the wood or the grain to check their condition. If any of the animals were still alive, the wooden test blocks remaining in the vessel were fumigated again and were reexamined after the corresponding time span had elapsed. The same number of animals in the untreated control was also checked at each point.
(§4) The vitality of the animals was checked at certain time intervals. The beetles could be observed through the fumigation vessel. This was also true for the larvae of the mealworm beetle and the broad-horned flour beetle. The wooden test blocks of the wood pest larvae were opened with hammer and chisel. Tweezers were used to pull the rice weevil larvae out of the grain seeds. The exact time intervals and the number of the evaluated pests were documented in the test results.

[2] = tested on: Broad-horned flour beetle (Gnathocerus cornutus); assay: Fumigation test in glass vessel, broad-horned flour beetles; settings: GNATCO beetles; Example 7; ACF 53.0/54.6/0 g/m^3, second gas (SF) 43.6/41.4/39.8 g/m^3 (1st/2nd/3rd fumigation); 20.0/20.2/19.8 C.
From the text: (§5) a3) Broad-horned flour beetle (Gnathocerus cornutus)=GNATCO
as §1, §2, §3, §4

[3] = tested on: House longhorn beetle (Hylotrupes bajulus) larvae; assay: Fumigation test in glass vessel, house longhorn beetle larvae in wood blocks; settings: HYLOBA larvae in wood blocks; Example 7; ACF 53.0/54.6/0 g/m^3, second gas (SF) 43.6/41.4/39.8 g/m^3 (1st/2nd/3rd fumigation); 20.0/20.2/19.8 C.
From the text: (§6) b1) House longhorn beetle (Hylotrupes bajulus)=HYLOBA
as §1, §2, §3, §4

[4] = tested on: Mealworm beetle (Tenebrio molitor); assay: Fumigation test in glass vessel, mealworm beetles; settings: TENEMO beetles; Example 7; ACF 53.0/54.6/0 g/m^3, second gas (SF) 43.6/41.4/39.8 g/m^3 (1st/2nd/3rd fumigation); 20.0/20.2/19.8 C.
From the text: (§7) a1) Mealworm beetle (Tenebrio molitor)=TENEMO
as §1, §2, §3, §4

[5] = tested on: Rice weevil (Sitophilus oryzae); assay: Fumigation test in glass vessel, rice weevils; settings: SITTOR beetles; Example 7; ACF 53.0/54.6/0 g/m^3, second gas (SF) 43.6/41.4/39.8 g/m^3 (1st/2nd/3rd fumigation); 20.0/20.2/19.8 C.
From the text: a2) Rice weevil (Sitophilus oryzae)=SITTOR
as §1, §2, §3, §4

[6] = tested on: House longhorn beetle (Hylotrupes bajulus); assay: Fumigation test in glass vessel, house longhorn beetles; settings: HYLOBA beetles; Example 7; ACF 53.0/54.6/0 g/m^3, second gas (SF) 43.6/41.4/39.8 g/m^3 (1st/2nd/3rd fumigation); 20.0/20.2/19.8 C.
From the text: as §6, §1, §2, §3, §4

[7] = tested on: Mealworm beetle (Tenebrio molitor) larvae; assay: Fumigation test in glass vessel, mealworm beetle larvae; settings: TENEMO larvae; Example 7; ACF 53.0/54.6/0 g/m^3, second gas (SF) 43.6/41.4/39.8 g/m^3 (1st/2nd/3rd fumigation); 20.0/20.2/19.8 C.
From the text: as §7, §1, §2, §3, §4

[8] = tested on: Common furniture beetle (Anobium punctatum) larvae; assay: Fumigation test in glass vessel, common furniture beetle larvae in wood blocks; settings: ANOBPU larvae in wood blocks; Example 7; ACF 53.0/54.6/0 g/m^3, second gas (SF) 43.6/41.4/39.8 g/m^3 (1st/2nd/3rd fumigation); 20.0/20.2/19.8 C.
From the text: b2) Common furniture beetle (Anobium punctatum)=[…]
as §1, §2, §3, §4

[9] = tested on: Broad-horned flour beetle (Gnathocerus cornutus) larvae; assay: Fumigation test in glass vessel, broad-horned flour beetle larvae; settings: GNATCO larvae; Example 7; ACF 53.0/54.6/0 g/m^3, second gas (SF) 43.6/41.4/39.8 g/m^3 (1st/2nd/3rd fumigation); 20.0/20.2/19.8 C.
From the text: as §5, §1, §2, §3, §4

Which “Number alive, 30 min. after 1st Fumigation” value [1] does the source give for `O=C(F)C(F)(F)Cl` [CFACF, chlorodifluoroacetyl fluoride] here?
The value was 0.

And the “Number dead, 30 min. after 1st Fumigation” value [1]?
Its value is 15.

And the “Number alive, 30 min. after 1st Fumigation” value [2]?
Its value is 0.

And the “Number dead, 30 min. after 1st Fumigation” value [2]?
The value was 15.

And the “Number alive, 1 hr. after 1st Fumigation” value [3]?
The value was 5.

What about the “Number alive, 3 hrs. after 1st Fumigation” value [3] of the same compound?
The value was 5.

What about the “Number alive, 6 hrs after 1st Fumigation” value [3] of the same compound?
The value was 5.

What about the “Number dead, 1 hr. after 1st Fumigation” value [3] of the same compound?
The value was 0.

What about the “Number dead, 3 hrs. after 1st Fumigation” value [3] of the same compound?
Its value is 0.

And the “Number dead, 6 hrs after 1st Fumigation” value [3]?
Its value is 0.

And the “Number alive, 30 min. after 1st Fumigation” value [4]?
Its value is 10.

And the “Number alive, 1 hr. after 1st Fumigation” value [4]?
Its value is 10.

And the “Number alive, 3 hrs. after 1st Fumigation” value [4]?
The value was 10.

What about the “Number alive, 6 hrs after 1st Fumigation” value [4] of the same compound?
Its value is 5.

What about the “Number dead, 30 min. after 1st Fumigation” value [4] of the same compound?
The value was 0.

What about the “Number dead, 1 hr. after 1st Fumigation” value [4] of the same compound?
The value was 0.

And the “Number dead, 3 hrs. after 1st Fumigation” value [4]?
Its value is 0.

And the “Number dead, 6 hrs after 1st Fumigation” value [4]?
Its value is 5.

And the “Number alive, 30 min. after 1st Fumigation” value [5]?
The value was 7.

What about the “Number alive, 1 hr. after 1st Fumigation” value [5] of the same compound?
The value was 7.

What about the “Number alive, 3 hrs. after 1st Fumigation” value [5] of the same compound?
Its value is 0.

And the “Number dead, 30 min. after 1st Fumigation” value [5]?
The value was 8.

And the “Number dead, 1 hr. after 1st Fumigation” value [5]?
Its value is 8.

What about the “Number dead, 3 hrs. after 1st Fumigation” value [5] of the same compound?
Its value is 15.

What about the “Number alive, 30 min. after 1st Fumigation” value [6] of the same compound?
Its value is 0.

What about the “Number dead, 30 min. after 1st Fumigation” value [6] of the same compound?
Its value is 6.

What about the “Number alive, 30 min. after 1st Fumigation” value [7] of the same compound?
The value was 10.

And the “Number alive, 1 hr. after 1st Fumigation” value [7]?
Its value is 10.

What about the “Number alive, 3 hrs. after 1st Fumigation” value [7] of the same compound?
The value was 0.

What about the “Number dead, 30 min. after 1st Fumigation” value [7] of the same compound?
Its value is 0.

And the “Number dead, 1 hr. after 1st Fumigation” value [7]?
The value was 0.

And the “Number dead, 3 hrs. after 1st Fumigation” value [7]?
Its value is 10.

And the “Number alive, 1 hr. after 1st Fumigation” value [8]?
Its value is 6.

And the “Number alive, 3 hrs. after 1st Fumigation” value [8]?
The value was 3.

What about the “Number alive, 6 hrs after 1st Fumigation” value [8] of the same compound?
The value was 4.

What about the “Number dead, 1 hr. after 1st Fumigation” value [8] of the same compound?
The value was 0.

What about the “Number dead, 3 hrs. after 1st Fumigation” value [8] of the same compound?
The value was 3.

What about the “Number dead, 6 hrs after 1st Fumigation” value [8] of the same compound?
The value was 2.

What about the “Number alive, 30 min. after 1st Fumigation” value [9] of the same compound?
Its value is 7.

And the “Number alive, 1 hr. after 1st Fumigation” value [9]?
Its value is 7.

And the “Number alive, 3 hrs. after 1st Fumigation” value [9]?
The value was 0.

What about the “Number dead, 30 min. after 1st Fumigation” value [9] of the same compound?
The value was 8.

And the “Number dead, 1 hr. after 1st Fumigation” value [9]?
Its value is 8.

What about the “Number dead, 3 hrs. after 1st Fumigation” value [9] of the same compound?
The value was 15.
